# Source: ChEMBL document CHEMBL4765417, “Targeting Protein Folding: A Novel Approach for the Treatment of Pathogenic Bacteria” (J Med Chem, 2020)
# Legend:
# [1] = molecular target: Outer membrane protein MIP (Legionella pneumophila, UniProt Q70YI1); experiment: Inhibition of Legionella pneumophila Mip assessed as reduction in PPIase activity using succinyl-Ala-Leu-Pro-Phe-4-nitroanilide as substrate incubated for 4 mins by absorbance method
# [2] = Inhibition of Neisseria gonorrhoeae N2009 Mip using N-succinyl-Ala-Ala-Pro-Phe-4-nitroanilide as substrate by absorbance method
# Chlamydia trachomatis [3] = experiment: Antibacterial activity against Chlamydia trachomatis infected in human HeLa cells at 5 uM assessed as reduction in progeny infection administered at 8 to 24 hrs post infection by Western blot analysis; assay type: functional; set-up: scale not given: the % may be the effect or the level left; conditions: time 8-24 hrs
# Chlamydia trachomatis [4] = experiment: Antibacterial activity against Chlamydia trachomatis infected in human HeLa cells at 5 uM administered at 8 to 24 hrs post infection by phalloidin dye based Alexa Fluor immunofluorescence microscopy; assay type: functional; conditions: time 8-24 hrs
# Chlamydia trachomatis [5] = experiment: Antibacterial activity against Chlamydia trachomatis infected in human HeLa cells at 5 uM assessed as reduction in progeny infection administered immediately followed by bacterial infection by Western blot analysis; assay type: functional; set-up: scale not given: the % may be the effect or the level left
# [6] = Inhibition of Chlamydia trachomatis Mip using N-succinyl-Ala-Ala-Pro-Phe-4-nitroanilide as substrate by absorbance method
# Chlamydia trachomatis [7] = experiment: Antibacterial activity against Chlamydia trachomatis infected in human HeLa cells at 5 uM assessed as reduction in progeny infection administered immediately followed by bacterial infection by phalloidin dye based Alexa Fluor immunofluorescence microscopy; assay type: functional; set-up: scale not given: the % may be the effect or the level left
# HCT-116 = experiment: Antiproliferative activity against human HCT116 cells incubated for 24 hrs by cell count reagent SF based assay; assay type: functional; conditions: HCT-116, 24 h
# [8] = molecular target: Peptidyl-prolyl cis-trans isomerase FKBP1A (Homo sapiens, UniProt P62942); experiment: Inhibition of human FKBP12 assessed as reduction in PPIase activity using succinyl-Ala-Leu-Pro-Phe-4-nitroanilide as substrate incubated for 4 mins by absorbance method
# Peptidyl-prolyl cis-trans isomerase FKBP1A, sequence (P62942 whole entry): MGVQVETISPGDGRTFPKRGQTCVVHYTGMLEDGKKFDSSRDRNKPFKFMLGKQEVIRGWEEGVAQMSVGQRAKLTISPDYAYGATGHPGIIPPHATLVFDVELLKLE
# clinical = conditions: human, in vivo, po, 30 mg/m2
# Outer membrane protein MIP, sequence (Q70YI1 21-233 limits assumed): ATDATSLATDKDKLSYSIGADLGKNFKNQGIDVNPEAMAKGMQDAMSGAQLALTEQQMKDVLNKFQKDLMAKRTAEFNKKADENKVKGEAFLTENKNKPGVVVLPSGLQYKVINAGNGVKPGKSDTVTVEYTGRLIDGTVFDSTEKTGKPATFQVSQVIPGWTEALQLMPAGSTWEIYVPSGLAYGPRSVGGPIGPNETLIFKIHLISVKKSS
SMILES,IC50 [1] [µM],IC50 [2] [nM],IC50 [6] [nM],IC50 [8] [nM],also measured
C[C@@H]1CC([C@H](O)CC2CC(=O)N(CC(=O)N(C)C(C)(C)C)C(=O)C2)C(=O)[C@@H](C)C1 (stereo partly specified),31.7,–,–,–,–
COc1cc(CCCOC(=O)C2CCCCN2S(=O)(=O)Cc2ccc([N+](=O)[O-])cc2)cc(OC)c1OC (stereo unspecified),–,95.6,64.6,–,Activity (Chlamydia trachomatis [3]): 50%; Activity (Chlamydia trachomatis [4]): 50%; Activity (Chlamydia trachomatis [5]): 50%; Activity (Chlamydia trachomatis [7]): 50%
S=C(SC(=S)C1CCCCC1)C1CCCCC1,–,–,–,–,EC50 (HCT-116): 10 µM
COc1cc(CCCOC(=O)C2CCCCN2S(=O)(=O)Cc2cccc([N+](=O)[O-])c2)cc(OC)c1OC (stereo unspecified),–,2790,241,–,–
CCC12CC3CC(C1)C(NC(=O)CN1C(=O)CC(C[C@@H](O)C4C[C@@H](C)C[C@H](C)C4=O)CC1=O)C(C3)C2 (stereo partly specified),5.6,–,–,190,–
C[C@@H]1CC([C@H](O)CC2CC(=O)N(CC(=O)NC3C4CC5(C)CC3CC(C)(C4)C5)C(=O)C2)C(=O)[C@@H](C)C1 (stereo partly specified),1.7,–,–,180,–
C[C@@H]1CC([C@H](O)CC2CC(=O)N(CC(=O)NC3C4CC5(C)CC(O)(C4)CC3(C)C5)C(=O)C2)C(=O)[C@@H](C)C1 (stereo partly specified),4.9,–,–,220,–
C[C@@H]1CC([C@H](O)CC2CC(=O)N(CC(=O)NC3C4CC5CC3CC(O)(C5)C4)C(=O)C2)C(=O)[C@@H](C)C1 (stereo partly specified),21.8,–,–,1200,–
CO[C@H]1C[C@@H]2CC[C@@H](C)[C@@](O)(O2)C(=O)C(=O)N2CCCC[C@H]2C(=O)O[C@H]([C@H](C)C[C@@H]2CC[C@@H](O)[C@H](OC)C2)CC(=O)[C@H](C)/C=C(\C)[C@@H](O)[C@@H](OC)C(=O)[C@H](C)C[C@H](C)/C=C/C=C/C=C/1C [SIROLIMUS],–,15.8,7.9,–,–
CC1=C(/C=C/C(C)=C/C=C/C(C)=C/C(=O)O)C(C)(C)CCC1 [TRETINOIN],–,–,–,–,half-life at 672 h (clinical): 45 min
